For assay [1], the system named is specific T-cell immune responses against OVA peptides. The assay is described as follows: OVA peptides subcutaneous immunization, IFN-γ ELISPOT on spleen cells. The format is in vivo, C57BL/6 mice. The note with it: 80 mg/kg IP daily 5 days, vs PBS + OVA / IFA. The protocol:
MnTBAP (Calbiochem, San Diego, USA or Enzo Life Sciences, Farmingdale, USA) is dissolved in 75 mM NaOH to constitute a 20 mM stock solution. MnTBAP is dissolved in the complete medium, used for in vitro treatment, containing RPMI-1640 supplemented with 10% heat-inactivated fetal calf serum, 100 U/ml penicillin/streptomycin, 2 mM glutamax and 50 µM β-mercaptoethanol β-ME). Hypertonic medium, used to block clathrin dependent endocytosis, is complete medium supplemented with 0.45 M sucrose. For in vivo treatment, the stock solution is diluted with PBS and administered at 80 mg/kg intraperitoneally daily during five days. Control animals are injected with equivalent volume of PBS.
A mixture of chicken egg albumin (OVA) peptides is administrated subcutaneously in mice anesthetized by intraperitoneal injection of xylazine (10 mg/kg) and ketamine (100 mg/kg). OVA257-264 (SEQ ID NO: 3; SIINFEKL) (InvivoGen, San Diego, USA) is a class I (Kb)-restricted peptide epitope of OVA presented by the class I major histocompatibility complex molecule (CMH) H-2Kb. OVA323-339 (SEQ ID NO: 4; ISQAVHAAHAEINEAGR) (AnaSpec, San Jose, USA) is an H-2b-restricted OVA class II epitope. 100 µg of each peptide complexed with the same volume of incomplete Freund's adjuvant (IFA) (Sigma-Aldrich) are administrated. Controls are injected with PBS-IFA complexes. OVA peptides- and PBS-IFA complexes are injected two hours or 21 days post first intraperitoneal injection of MnTBAP (or PBS). Eight days post OVA peptides injection, mice are sacrificed and spleens harvested to analyze OVA-specific T cell response.
Spleens are harvested to analyze the cellular immune anti-transgene response by T-cell cytokine response assay. Multiscreen-HA Assay System 96-well Filtration plates (Merck) are coated overnight with 2.5 µg/ml of anti-mouse IFN-γ purified mAb (eBiosciences) at 4°C, washed, and then blocked with RPMI 1640 medium (Life Technologies, Saint-Aubin, France) supplemented with 10% heat inactivated fetal bovine serum (FCS), 100U/ml penicillin/streptomycin (Thermo Fisher Scientific) and 2mM GlutaMAXTM-I (Life technologies) for 2 hours at 37°C. Plates are washed three times with RPMI 1640 medium without FCS. Splenocytes are added in duplicate to the IFN-γ-coated well (1 or 0.5 x 10^6 cells/well) and cultured in presence of Dby or Uty peptide (Genepep, Montpellier, France) at 2 µM or in presence of OVA peptides at 10 µg/ml. As a positive control, cells are stimulated with Concanavalin A (Sigma-Aldrich) at 1 µg/ml in each test. […] Spots are counted using an AID reader (Ceipheid Benelux, Louven, Belgium). Spot forming units (SFU) per million cells for each mouse are calculated as the average value of duplicate measures after subtraction of background values obtained with in vitro unstimulated splenocytes.

Assay [2] has as its system clathrin and CD4. Description: Immunofluorescence confocal microscopy, anti-CD4 and anti-clathrin. The assay is classed as cell-based. The note with it: murine splenic enriched CD4+ T cells, 2 hours, 400 µM, vs non-treated. On the procedure:
After culture in complete medium with or without MnTBAP at 400 µM, murine splenic CD4^+ T cells are collected and subjected to immunostaining as previously described (T. M. Neildez-Nguyen et al., Immunology 144, 431. 2015). Briefly, after adhesion on poly-L-lysine-coated slides (Thermo Fisher Scientific), cells are fixed in 4% paraformaldehyde for 5 minutes at 4°C and for 10 minutes at room temperature, and permeabilized with methanol for 6 minutes at -20°C. Cells are stained overnight with rat anti-mouse CD4-APC (BD Biosciences) and rabbit anti-mouse clathrin (Abcam, Paris, France) antibodies, and then with the goat anti-rabbit Alexa Fluor 488 secondary antibody (Invitrogen, Carlsbad, USA) for 30 minutes at room temperature. Negative controls are performed with the corresponding isotype controls of primary antibodies used (BD Biosciences and Abcam). The slides are mounted with Fluoromount/Dapi (SouthernBiotech, Montrouge, France). Images are acquired with confocal-laser-scanning microscope (Leica Microsystems, Nanterre, France).

Setting [3] is: OVA/IFA immunization 21 days after first injection.
The mark [4] stands for this setting: OVA/IFA immunization two hours after first injection.

Regarding `O=C(O)c1ccc(-c2c3nc(c(-c4ccc(C(=O)O)cc4)c4ccc([n-]4)c(-c4ccc(C(=O)O)cc4)c4nc(c(-c5ccc(C(=O)O)cc5)c5ccc2[n-]5)C=C4)C=C3)cc1.[Mn+3]` [MnTBAP, manganese [III] tetrakis (4-benzoic acid) porphyrin], the “IFN-γ production by OVA-specific CD4^+ T cells” value in assay [1] (setting [3]) was “produce low levels of IFN-γ with no significant differences”; in assay [1] (setting [4]), “not able to produce IFN-γ”. For the same compound, the “IFN-γ production by OVA-specific CD8^+ T cells” value in assay [1] (setting [3]) is on record as “produce IFN-γ with no significant differences”; in assay [1] (setting [4]), “not able to produce IFN-γ”. Besides, in assay [2], the “colocalization of clathrin and CD4” value was “colocalization of clathrin and CD4 is observed”.

For the origin of these results see patent publication EP3431088A1, “MNTBAP FOR USE IN INDUCING A TRANSIENT IMMUNE TOLERANCE” (priority 2017, dated 2019).
